{"source": "patent US12138256B2", "about": "“Treatment of cardiopulmonary disorders” (Bayer Aktiengesellschaft, priority 2021, dated 2024)", "system": "thromboxane analog U46619 induced PAH in minipigs with ODQ or L-NAME pretreatment", "assay": "PAH minipig model under oxidative stress / low NO (pretreatment by ODQ or L-NAME)", "assay_type": "in vivo, Göttingen minipig", "design": "PAP / BP: unit not given beside the values", "details": "for BP / PAP: 30 μg/kg nominal dose inhaled", "description": "To simulate conditions of oxidative stress or low NO concentrations as assumed to be present in different cardiovascular disorders, comparative example 11 was evaluated with and without pretreatment by ODQ (inhibitor of sGC) or L-NAME (NOS inhibitor). […] In contrast, the effects of Ventavis® under conditions of oxidative stress or low NO concentrations were not enhanced. In addition, also under these pathophysiological conditions the duration of action of comparative example 11 was much longer compared to Ventavis®.", "note": "Where “and” joins values, the source holds several entries; their conditions need not be identical. Equal entries are not always repeated."}
{"compound": "O=C(O)c1ccc(CCN(CCc2ccccc2OCc2ccc(-c3ccc(C(F)(F)F)cc3)cc2Cl)[C@H]2CCCc3nc(C(=O)O)ccc32)cc1", "note": "[comparative example 11, (5S)-5-{[2-(4-carboxyphenyl)ethyl][2-(2-{[3-chloro-4′-(trifluoromethyl)[biphenyl]-4-yl]methoxy}phenyl)ethyl]amino}-5,6,7,8-tetrahydroquinoline-2-carboxylic acid]", "values": [{"measurement": "BP", "setting": "L-NAME pretreatment, Time 170", "result": "103.0 and 135.0 and 123.0"}, {"measurement": "PAP", "setting": "L-NAME pretreatment, Time 170", "result": "39.5 and 36.2 and 34.6"}, {"measurement": "BP", "setting": "L-NAME pretreatment, Time 180", "result": "104.0 and 139.0 and 127.0"}, {"measurement": "PAP", "setting": "L-NAME pretreatment, Time 180", "result": "38.9 and 29.1 and 30.8"}, {"measurement": "BP", "setting": "L-NAME pretreatment, Time 190", "result": "104.0 and 137.0 and 127.0"}, {"measurement": "PAP", "setting": "L-NAME pretreatment, Time 190", "result": "38.0 and 25.9 and 28.4"}, {"measurement": "BP", "setting": "L-NAME pretreatment, Time 200", "result": "104.0 and 135.0 and 129.0"}, {"measurement": "PAP", "setting": "L-NAME pretreatment, Time 200", "result": "36.8 and 24.6 and 28.1"}, {"measurement": "BP", "setting": "L-NAME pretreatment, Time 210", "result": "105.0 and 133.0 and 127.0"}, {"measurement": "PAP", "setting": "L-NAME pretreatment, Time 210", "result": "36.5 and 23.9 and 26.6"}, {"measurement": "BP", "setting": "L-NAME pretreatment, Time 220", "result": "107.0 and 131.0 and 127.0"}, {"measurement": "PAP", "setting": "L-NAME pretreatment, Time 220", "result": "36.6 and 23.8 and 25.5"}, {"measurement": "BP", "setting": "L-NAME pretreatment, Time 230", "result": "108.0 and 127.0 and 129.0"}, {"measurement": "PAP", "setting": "L-NAME pretreatment, Time 230", "result": "35.5 and 23.6 and 25.6"}, {"measurement": "BP", "setting": "L-NAME pretreatment, Time 240", "result": "106.0 and 128.0"}, {"measurement": "PAP", "setting": "L-NAME pretreatment, Time 240", "result": "35.0 and 24.0 and 25.0"}, {"measurement": "BP", "setting": "L-NAME pretreatment, Time 250", "result": "106.0 and 126.0 and 130.0"}, {"measurement": "PAP", "setting": "L-NAME pretreatment, Time 250", "result": "34.5 and 23.5 and 24.8"}, {"measurement": "BP", "setting": "L-NAME pretreatment, Time 260", "result": "107.0 and 126.0 and 130.0"}, {"measurement": "PAP", "setting": "L-NAME pretreatment, Time 260", "result": "34.6 and 24.2 and 24.7"}, {"measurement": "BP", "setting": "L-NAME pretreatment, Time 270", "result": "104.0 and 126.0 and 129.0"}, {"measurement": "PAP", "setting": "L-NAME pretreatment, Time 270", "result": "34.1 and 24.0 and 24.3"}, {"measurement": "BP", "setting": "L-NAME pretreatment, Time 280", "result": "103.0 and 125.0 and 129.0"}, {"measurement": "PAP", "setting": "L-NAME pretreatment, Time 280", "result": "33.4 and 23.7 and 24.4"}, {"measurement": "BP", "setting": "L-NAME pretreatment, Time 290", "result": "104.0 and 126.0 and 128.0"}, {"measurement": "PAP", "setting": "L-NAME pretreatment, Time 290", "result": "34.4 and 23.4 and 24.2"}, {"measurement": "BP", "setting": "L-NAME pretreatment, Time 300", "result": "105.0 and 125.0 and 127.0"}, {"measurement": "PAP", "setting": "L-NAME pretreatment, Time 300", "result": "34.2 and 24.1 and 24.0"}, {"measurement": "BP", "setting": "L-NAME pretreatment, Time 310", "result": "103.0 and 125.0 and 128.0"}, {"measurement": "PAP", "setting": "L-NAME pretreatment, Time 310", "result": "33.3 and 23.6 and 24.3"}, {"measurement": "BP", "setting": "L-NAME pretreatment, Time 320", "result": "104.0 and 125.0 and 126.0"}, {"measurement": "PAP", "setting": "L-NAME pretreatment, Time 320", "result": "33.8 and 23.1 and 24.0"}, {"measurement": "BP", "setting": "L-NAME pretreatment, Time 330", "result": "105.0 and 126.0 and 125.0"}, {"measurement": "PAP", "setting": "L-NAME pretreatment, Time 330", "result": 34.1}, {"measurement": "BP", "setting": "L-NAME pretreatment, Time 340", "result": "104.0 and 126.0 and 125.0"}, {"measurement": "BP", "setting": "without pretreatment, Time 170", "result": "90.0 and 108.0"}, {"measurement": "PAP", "setting": "without pretreatment, Time 170", "result": "39.7 and 38.0 and 42.6"}, {"measurement": "BP", "setting": "without pretreatment, Time 180", "result": "90.0 and 108.0"}, {"measurement": "PAP", "setting": "without pretreatment, Time 180", "result": "38.5 and 37.1 and 41.5"}, {"measurement": "BP", "setting": "without pretreatment, Time 190", "result": "90.0 and 107.0 and 108.0"}, {"measurement": "PAP", "setting": "without pretreatment, Time 190", "result": "37.0 and 35.9 and 40.3"}, {"measurement": "BP", "setting": "without pretreatment, Time 200", "result": "89.0 and 109.0"}, {"measurement": "PAP", "setting": "without pretreatment, Time 200", "result": "36.5 and 35.2 and 39.0"}, {"measurement": "BP", "setting": "without pretreatment, Time 210", "result": "89.0 and 108.0 and 109.0"}, {"measurement": "PAP", "setting": "without pretreatment, Time 210", "result": "35.6 and 34.2 and 38.5"}, {"measurement": "BP", "setting": "without pretreatment, Time 220", "result": "88.0 and 110.0 and 108.0"}, {"measurement": "PAP", "setting": "without pretreatment, Time 220", "result": "34.7 and 33.9 and 36.8"}, {"measurement": "BP", "setting": "without pretreatment, Time 230", "result": "87.0 and 108.0"}, {"measurement": "PAP", "setting": "without pretreatment, Time 230", "result": "34.8 and 33.4 and 37.1"}, {"measurement": "BP", "setting": "without pretreatment, Time 240", "result": "87.0 and 109.0 and 108.0"}, {"measurement": "PAP", "setting": "without pretreatment, Time 240", "result": "34.5 and 33.6 and 37.0"}, {"measurement": "BP", "setting": "without pretreatment, Time 250", "result": "86.0 and 110.0 and 109.0"}, {"measurement": "PAP", "setting": "without pretreatment, Time 250", "result": "34.3 and 33.5 and 36.7"}, {"measurement": "BP", "setting": "without pretreatment, Time 260", "result": "87.0 and 109.0 and 110.0"}, {"measurement": "PAP", "setting": "without pretreatment, Time 260", "result": "34.1 and 33.3 and 36.5"}, {"measurement": "BP", "setting": "without pretreatment, Time 270", "result": "86.0 and 108.0 and 110.0"}, {"measurement": "PAP", "setting": "without pretreatment, Time 270", "result": "34.0 and 33.6 and 36.2"}, {"measurement": "BP", "setting": "without pretreatment, Time 280", "result": "88.0 and 109.0"}, {"measurement": "PAP", "setting": "without pretreatment, Time 280", "result": "34.5 and 33.5 and 35.6"}, {"measurement": "BP", "setting": "without pretreatment, Time 290", "result": "88.0 and 108.0 and 110.0"}, {"measurement": "PAP", "setting": "without pretreatment, Time 290", "result": "34.7 and 33.6 and 35.5"}, {"measurement": "BP", "setting": "without pretreatment, Time 300", "result": "86.0 and 107.0 and 111.0"}, {"measurement": "PAP", "setting": "without pretreatment, Time 300", "result": "34.1 and 33.2 and 35.4"}, {"measurement": "BP", "setting": "without pretreatment, Time 310", "result": "85.0 and 107.0 and 109.0"}, {"measurement": "PAP", "setting": "without pretreatment, Time 310", "result": "34.0 and 33.6 and 35.1"}, {"measurement": "BP", "setting": "without pretreatment, Time 320", "result": "85.0 and 108.0 and 109.0"}, {"measurement": "PAP", "setting": "without pretreatment, Time 320", "result": "34.5 and 34.0 and 35.8"}, {"measurement": "BP", "setting": "without pretreatment, Time 330", "result": "85.0 and 108.0 and 109.0"}, {"measurement": "PAP", "setting": "without pretreatment, Time 330", "result": "34.8 and 34.0 and 35.9"}, {"measurement": "BP", "setting": "without pretreatment, Time 340", "result": 85.0}, {"measurement": "effect on PAP after pretreatment of ODQ or L-NAME", "setting": "inhaled, comparative example 11 30 μg/kg ND, Ventavis 10 μg/kg nominal dose", "result": "enhanced decrease of PAP without effects on systemic BP"}]}
